Experimental data as given in patent US20260159512A1, “BCAT2 INHIBITORS” (AGIOS PHARMACEUTICALS, INC., priority 2021, published 2026).

Key:
Conditions in all cases: average where tested multiple times
[1] = target: T1, BCAT2 (Homo sapiens, UniProt O15382); experiment: BCAT2 in vitro enzyme inhibition assay (resazurin/diaphorase-coupled fluorescence); format: biochemical
T1 sequence (O15382 28-392): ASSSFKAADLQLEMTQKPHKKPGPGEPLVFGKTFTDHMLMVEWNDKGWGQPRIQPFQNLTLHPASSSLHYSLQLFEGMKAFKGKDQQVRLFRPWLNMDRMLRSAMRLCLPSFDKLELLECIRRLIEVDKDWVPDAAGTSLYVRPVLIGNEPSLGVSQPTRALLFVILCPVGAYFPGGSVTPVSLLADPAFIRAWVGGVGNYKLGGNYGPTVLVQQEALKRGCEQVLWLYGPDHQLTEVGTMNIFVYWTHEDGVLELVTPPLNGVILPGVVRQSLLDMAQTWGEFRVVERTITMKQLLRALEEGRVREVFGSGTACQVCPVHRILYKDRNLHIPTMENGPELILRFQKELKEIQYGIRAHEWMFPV
In short: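 Coupled fluorescence readout: glutamate formed from L-leucine/α-ketoglutarate transamination drives GDH/NAD/diaphorase reduction of resazurin (Ex 540/Em 590). Human BCAT2 was first exposed 1 h at room temperature to compound, top final 100 μM in 3-fold, 10-point series; substrate reaction ran 1 h before SDS quench, in technical duplicate with DMSO max and enzyme-free min controls.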

[2] = target: T2, hBCAT1 (Homo sapiens, UniProt P54687); experiment: BCAT1 in vitro enzyme inhibition assay (resazurin/diaphorase-coupled fluorescence); format: biochemical
T2 sequence (P54687 1-386): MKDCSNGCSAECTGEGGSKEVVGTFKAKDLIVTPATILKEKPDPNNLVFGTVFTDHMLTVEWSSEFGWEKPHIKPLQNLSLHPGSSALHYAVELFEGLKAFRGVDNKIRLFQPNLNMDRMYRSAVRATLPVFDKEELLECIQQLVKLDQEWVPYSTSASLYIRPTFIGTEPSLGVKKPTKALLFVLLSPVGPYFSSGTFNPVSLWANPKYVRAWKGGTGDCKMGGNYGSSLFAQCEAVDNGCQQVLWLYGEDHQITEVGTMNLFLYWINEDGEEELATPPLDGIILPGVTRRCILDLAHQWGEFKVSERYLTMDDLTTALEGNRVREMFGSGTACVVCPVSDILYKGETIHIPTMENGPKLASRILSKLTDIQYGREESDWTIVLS
In short: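 Ten-point, 3-fold compound series (top final 100 μM, delivered 1:50 from 50× DMSO stocks) tested against hBCAT1. Inhibition detected via diaphorase-coupled resazurin fluorescence, duplicate wells, with values from repeated runs averaged.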

[3] = target: T1, BCAT2; experiment: BCAT2 in vitro cell inhibition using engineered A549 cells (KMV cell assay, 13C6-KMV by LC-MS/MS); format: cell-based; design: The result was an engineered A549 cell line that expressed endogenous BCAT2; endogenous in cells; host or cells: A549 cells with MUT and BCAT1 knocked out by CRISPR/CAS9; key to BCAT2 Cell Inhibition: A: less than or equal to 0.100 μM; B: greater than 0.100 and less than or equal to 0.500 μM; C: greater than 0.500 and less than or equal to 1.000 μM; d: greater than 1.000 μM; E: no fit

| IC50 [1] | IC50 [2] | IC50 [3] | BCAT2 Cell Inhibition [3] | SMILES |
| --- | --- | --- | --- | --- |
| ≤ 100 nM | 500 to 1000 nM | > 1000 nM | – | NCc1ccccc1-c1nc2cnc(-c3nc[nH]n3)cc2n1[C@@H]1CCC[C@H](NC(=O)c2ncc(Cl)s2)C1 [Example 366, N-((1S,3R)-3-(2-(2-(aminomethyl)phenyl)-6-(1H-1,2,4-triazol-3-yl)-1H-imidazo[4,5-c]pyridin-1-yl)cyclohexyl)-5-chlorothiazole-2-carboxamide] |
| ≤ 100 nM | < 500 nM | – | E | O=C(N[C@H]1CCC[C@@H](n2c(-c3ccccc3OC(F)F)nc3cnc(-c4nc[nH]n4)cc32)C1)c1ncc(Cl)s1 [Example 367, 5-chloro-N-((1S,3R)-3-(2-(2-(difluoromethoxy)phenyl)-6-(1H-1,2,4-triazol-3-yl)-1H-imidazo[4,5-c]pyridin-1-yl)cyclohexyl)thiazole-2-carboxamide] |
| ≤ 100 nM | < 500 nM | ≤ 100 nM | – | CC(C)Cc1nc2cnc(-c3nc[nH]n3)cc2n1[C@@H]1CCCC[C@H](NC(=O)c2ncc(Cl)s2)C1 [Example 374, 5-chloro-N-((1S,3R)-3-(2-isobutyl-6-(1H-1,2,4-triazol-3-yl)-1H-imidazo[4,5-c]pyridin-1-yl)cycloheptyl)thiazole-2-carboxamide] |
| ≤ 100 nM | < 500 nM | ≤ 100 nM | – | O=C(N[C@H]1CCC[C@@H](n2c(-c3ccccc3F)nc3cnc(-c4ncn(C(F)F)n4)cc32)C1)c1ncc(Cl)s1 [Example 378, 5-chloro-N-((1S,3R)-3-(6-(1-(difluoromethyl)-1H-1,2,4-triazol-3-yl)-2-(2-fluorophenyl)-1H-imidazo[4,5-c]pyridin-1-yl)cyclohexyl)thiazole-2-carboxamide] |
| ≤ 100 nM | < 500 nM | ≤ 100 nM | – | CC1(Cc2nc3cnc(-c4nc[nH]n4)cc3n2[C@@H]2CCC[C@H](NC(=O)c3ncc(Cl)s3)C2)CC1 [Example 379, 5-chloro-N-((1S,3R)-3-(2-((1-methylcyclopropyl)methyl)-6-(1H-1,2,4-triazol-3-yl)-1H-imidazo[4,5-c]pyridin-1-yl)cyclohexyl)thiazole-2-carboxamide] |
| 100 to 500 nM | > 5000 nM | > 1000 nM | – | CC(C)Cc1nc2cnc(-c3nnco3)cc2n1[C@@H]1CCC[C@H](NC(=O)c2ncc(Cl)s2)C1 [Example 380, 5-chloro-N-((1S,3R)-3-(2-isobutyl-6-(1,3,4-oxadiazol-2-yl)-1H-imidazo[4,5-c]pyridin-1-yl)cyclohexyl)thiazole-2-carboxamide] |
| ≤ 100 nM | 1000 to 5000 nM | 100 to 500 nM | – | CC(C)(C)Cc1nc2cnc(-c3ccccn3)cc2n1[C@@H]1CCC[C@H](NC(=O)c2ncc(Cl)s2)C1 [Example 381, 5-chloro-N-((1S,3R)-3-(2-neopentyl-6-(pyridin-2-yl)-1H-imidazo[4,5-c]pyridin-1-yl)cyclohexyl)thiazole-2-carboxamide] |
| ≤ 100 nM | < 500 nM | 100 to 500 nM | – | CC(C)Cc1nc2cnc(-c3ncccn3)cc2n1C1CCCC(NC(=O)c2ncc(Cl)s2)C1O (stereo not drawn) [Example 383, 5-chloro-N-(2-hydroxy-3-(2-isobutyl-6-(pyrimidin-2-yl)-1H-imidazo[4,5-c]pyridin-1-yl)cyclohexyl)thiazole-2-carboxamide] |
| ≤ 100 nM | < 500 nM | ≤ 100 nM | – | CC(C)Cc1nc2cnc(-c3nccs3)cc2n1C1CCCC(NC(=O)c2ncc(Cl)s2)C1O (stereo not drawn) [Example 386, 5-chloro-N-(2-hydroxy-3-(2-isobutyl-6-(thiazol-2-yl)-1H-imidazo[4,5-c]pyridin-1-yl)cyclohexyl)thiazole-2-carboxamide] |
| ≤ 100 nM | < 500 nM | ≤ 100 nM | – | CC(C)(C)Cc1nc2cnc(-n3nccn3)cc2n1[C@@H]1CCC[C@H](NC(=O)c2ccc(Cl)s2)[C@H]1O [Example 387, 5-chloro-N-((1S,2R,3R)-2-hydroxy-3-(2-neopentyl-6-(2H-1,2,3-triazol-2-yl)-1H-imidazo[4,5-c]pyridin-1-yl)cyclohexyl)thiophene-2-carboxamide] |
